Structures can show the parent of a compound that is named as a salt.
Key:
[1] = tested on: T1, α-1-Acid glycoprotein (AGP, orosomucoid); test: intrinsic protein fluorescence quenching, Klotz plot; type: binding, Homo sapiens; details: λex 295 nm (Trp); pH 7.4, 0.05 M phosphate, 298 K; unit misprinted in table, L/mol by b49
T1 construct: gene ORM1
Excerpt: intrinsic protein fluorescence quenching, Klotz plot on α-1-Acid glycoprotein (AGP, orosomucoid)

[2] = molecular target: T2, Human serum albumin (HSA) (Homo sapiens, UniProt P02768); test: as above; type: binding; details: λex 295 nm (Trp); pH 7.4, 0.05 M phosphate, 298 K; unit misprinted in table, L/mol by b49
T2 construct: gene ALB
Excerpt: intrinsic protein fluorescence quenching, Klotz plot on Human serum albumin (HSA)

T2 sequence (P02768 25-609): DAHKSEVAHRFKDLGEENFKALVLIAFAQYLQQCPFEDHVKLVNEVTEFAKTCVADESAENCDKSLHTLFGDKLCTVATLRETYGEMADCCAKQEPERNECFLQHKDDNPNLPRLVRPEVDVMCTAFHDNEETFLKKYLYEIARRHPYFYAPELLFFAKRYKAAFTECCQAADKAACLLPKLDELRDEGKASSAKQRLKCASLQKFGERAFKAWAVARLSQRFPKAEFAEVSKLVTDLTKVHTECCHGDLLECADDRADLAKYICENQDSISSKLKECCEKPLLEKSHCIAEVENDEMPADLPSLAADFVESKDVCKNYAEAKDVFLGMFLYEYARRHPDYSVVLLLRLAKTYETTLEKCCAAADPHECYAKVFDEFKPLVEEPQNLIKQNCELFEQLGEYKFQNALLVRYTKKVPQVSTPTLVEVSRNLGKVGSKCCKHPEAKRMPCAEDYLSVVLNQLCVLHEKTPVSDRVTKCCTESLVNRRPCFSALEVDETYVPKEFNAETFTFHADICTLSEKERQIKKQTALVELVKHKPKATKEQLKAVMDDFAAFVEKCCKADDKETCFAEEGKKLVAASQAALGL

λex 295 nm / (Ka. 10^4) ±SD * (mol.L^-1) [2]: 2.71 ± 0.01 ·10^4
Compound: C[n+]1cc2c(c3ccccc31)Nc1ccccc1S2 [Salt1, 5-methyl-12(H)-chino[3,4-b][1,4]benzothiazinium chloride]
λex 295 nm / (Ka. 10^4) ±SD * (mol.L^-1) [1]: 7.86 ± 0.03 ·10^4
